Consider 14 molecules from PubChem BioAssay AID328 (DTP/NCI, 2004).

The experiment deals with BDF1 mice, P388 leukemia ip, median survival T/C. The experiment is described as follows: NCI In Vivo Anticancer Drug Screen. Data for tumor model P388 Leukemia (intraperitoneal) in B6D2F1 (BDF1) mice. The conditions noted are these: endpoint: median survival time, higher = longer survival. In short, it runs like this: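 Read-out is survival of treated animals expressed relative to the vehicle group, as a T/C ratio.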

Where [1] appears, read: dose: 100.0 mg/kg/injection, schedule: Q04DX003 (ip), vehicle: saline with Tween-80.
[2] abbreviates: dose: 200.0 mg/kg/injection, schedule: Q04DX003 (ip), vehicle: saline with Tween-80.
The mark [3] stands for this setting: dose: 400.0 mg/kg/injection, schedule: Q04DX003 (ip), vehicle: saline with Tween-80.
Setting [4] is: dose: 6.25 mg/kg/injection, schedule: Q01DX009 (ip), vehicle: saline.
The mark [5] stands for this setting: dose: 12.5 mg/kg/injection, schedule: Q01DX009 (ip), vehicle: saline.

Each structure is given as a SMILES string. Values joined by “and” are separate entries in the source; they are usually repeats but may differ in a detail not shown here. Equal values may be shown once. Inconclusive results and toxic doses are left out.

Take `Oc1cc(N2CC2)c(O)cc1N1CC1`: the T/C is, setting by setting: (dose: 0.02 mg/kg/injection, schedule: Q01DX009 (ip), vehicle: saline) 150 % of control; (dose: 0.03 mg/kg/injection, schedule: Q01DX009 (ip), vehicle: saline) 154 % of control; (dose: 0.1 mg/kg/injection, schedule: Q01DX009 (ip), vehicle: saline) 171 % of control; (dose: 0.13 mg/kg/injection, schedule: Q01DX009 (ip), vehicle: saline) 200 % of control and 213 % of control; (dose: 0.2 mg/kg/injection, schedule: Q01DX009 (ip), vehicle: saline) 186 % of control and 204 % of control; (dose: 0.3 mg/kg/injection, schedule: Q01DX009 (ip), vehicle: saline) 204 % of control. Further, the T/C is 200 % of control (dose: 0.44 mg/kg/injection, schedule: Q01DX009 (ip), vehicle: saline); 150 % of control (dose: 0.47 mg/kg/injection, schedule: Q04DX003 (ip), vehicle: saline); 263 % of control (dose: 0.68 mg/kg/injection, schedule: Q01DX009 (ip), vehicle: saline); 200 % of control (dose: 0.72 mg/kg/injection, schedule: Q04DX003 (ip), vehicle: saline); 268 % of control (dose: 1.0 mg/kg/injection, schedule: Q01DX009 (ip), vehicle: saline); 220 % of control (dose: 1.08 mg/kg/injection, schedule: Q04DX003 (ip), vehicle: saline). The T/C (dose: 1.65 mg/kg/injection, schedule: Q04DX003 (ip), vehicle: saline) is 225 % of control; the T/C (dose: 2.5 mg/kg/injection, schedule: Q04DX003 (ip), vehicle: saline) was 225 % of control and 150 % of control; the T/C (dose: 3.75 mg/kg/injection, schedule: Q04DX003 (ip), vehicle: saline) was 90 % of control; the T/C (dose: 16.0 micrograms/kg/injection, schedule: Q01DX009 (ip), vehicle: saline) is 105 % of control; the T/C (dose: 25.0 micrograms/kg/injection, schedule: Q01DX009 (ip), vehicle: saline) is 102 % of control; the T/C (dose: 38.0 micrograms/kg/injection, schedule: Q01DX009 (ip), vehicle: Klucel (hydroxypropylcellulose) (HPC)) was 190 % of control. The T/C was 200 % of control (dose: 58.0 micrograms/kg/injection, schedule: Q01DX009 (ip), vehicle: Klucel (hydroxypropylcellulose) (HPC)); 179 % of control (dose: 88.0 micrograms/kg/injection, schedule: Q01DX009 (ip), vehicle: saline); 120 % of control (dose: 132.0 micrograms/kg/injection, schedule: Q01DX009 (ip), vehicle: saline).
For `CCC(=O)Nc1cccc(Cl)c1`, the T/C (dose: 100.0 mg/kg/injection, schedule: Q01DX001 (ip), vehicle: saline with Tween-80) is 109 % of control; the T/C (dose: 200.0 mg/kg/injection, schedule: Q01DX001 (ip), vehicle: saline with Tween-80) was 109 % of control; the T/C (dose: 400.0 mg/kg/injection, schedule: Q01DX001 (ip), vehicle: saline with Tween-80) was 90 % of control.
On to `CCCCCCCCCCCCCCCC[N+]1([O-])CCCC1`, for which the T/C (dose: 12.5 mg/kg/injection, schedule: Q01DX009 (ip), vehicle: saline with Tween-80) was 110 % of control; the T/C (dose: 25.0 mg/kg/injection, schedule: Q01DX009 (ip), vehicle: saline with Tween-80) was 99 % of control; the T/C (dose: 50.0 mg/kg/injection, schedule: Q01DX009 (ip), vehicle: saline with Tween-80) was 108 % of control.
On to `CC(=O)OCCN1c2ccccc2Sc2cnccc21`, for which the T/C was 104 % of control under setting [1], 90 % of control under setting [2] and 95 % of control under setting [3].
Consider `C[C@]1(O)CC[C@H]2[C@@H]3CCC4=CC(=O)CC[C@]4(C)[C@@]3(Cl)[C@@H](O)C[C@@]21C`, for which the T/C (dose: 100.0 mg/kg/injection, schedule: Q01DX009 (ip), vehicle: saline sonified) was 100 % of control; the T/C under setting [1] is 95 % of control; the T/C (dose: 200.0 mg/kg/injection, schedule: Q01DX009 (ip), vehicle: saline sonified) was 100 % of control; the T/C under setting [2] is 100 % of control; the T/C (dose: 400.0 mg/kg/injection, schedule: Q01DX009 (ip), vehicle: saline sonified) was 100 % of control; the T/C under setting [3] is 100 % of control.
Consider `CC(Cl)CN(Cc1cc(O)c(CN(CC(C)Cl)CC(C)Cl)cc1O)CC(C)Cl` (stereo not given), for which the T/C was 118 % of control (dose: 100.0 mg/kg/injection, schedule: Q04DX003 (ip), vehicle: Klucel (hydroxypropylcellulose) (HPC)); 91 % of control (dose: 264.0 mg/kg/injection, schedule: Q04DX003 (ip), vehicle: Klucel (hydroxypropylcellulose) (HPC)); 113 % of control (dose: 264.0 mg/kg/injection, schedule: Q04DX003 (ip), vehicle: saline); 154 % of control (dose: 400.0 mg/kg/injection, schedule: Q04DX003 (ip), vehicle: Klucel (hydroxypropylcellulose) (HPC)); 109 % of control (dose: 400.0 mg/kg/injection, schedule: Q04DX003 (ip), vehicle: saline).
For `N#Cc1ccc(C(=O)CC(O)(C(F)(F)F)C(F)(F)F)cc1`, the T/C was 104 % of control (dose: 66.0 mg/kg/injection, schedule: Q04DX003 (ip), vehicle: saline with Tween-80); 95 % of control under setting [1]; 104 % of control (dose: 150.0 mg/kg/injection, schedule: Q04DX003 (ip), vehicle: saline with Tween-80); 100 % of control under setting [2]; 95 % of control under setting [3].
`CN(C)c1ccc(/C=C/c2cccc(/C=C/c3ccc(N(C)C)cc3)[n+]2[O-])cc1`: the T/C is 91 % of control (dose: 50.0 mg/kg/injection, schedule: Q01DX005 (ip), vehicle: saline with Tween-80); 89 % of control (dose: 100.0 mg/kg/injection, schedule: Q01DX005 (ip), vehicle: saline with Tween-80); 93 % of control (dose: 200.0 mg/kg/injection, schedule: Q01DX005 (ip), vehicle: saline with Tween-80).
As for `CC[P+](CC)(CC)CCCCI`, the T/C was 120 % of control under setting [4]; 123 % of control under setting [5]; 108 % of control and 120 % of control (dose: 25.0 mg/kg/injection, schedule: Q01DX009 (ip), vehicle: saline); 99 % of control (dose: 50.0 mg/kg/injection, schedule: Q01DX009 (ip), vehicle: saline).
`CC([NH-])C(=O)O.CC([NH-])C(=O)O.[Ni+2]` (stereo not given): the T/C was 109 % of control (dose: 4.0 mg/kg/injection, schedule: Q01DX009 (ip), vehicle: saline); 103 % of control under setting [4]; 113 % of control (dose: 8.0 mg/kg/injection, schedule: Q01DX009 (ip), vehicle: saline); 107 % of control under setting [5]; 113 % of control (dose: 15.0 mg/kg/injection, schedule: Q04DX003 (ip), vehicle: saline); 113 % of control (dose: 16.0 mg/kg/injection, schedule: Q01DX009 (ip), vehicle: saline). Moreover, the T/C (dose: 25.0 mg/kg/injection, schedule: Q04DX003 (ip), vehicle: saline) was 118 % of control.
With `NC(=O)c1csc(C2OC(CO)C(O)C2O)n1` (stereo not given), the T/C was 213 % of control (dose: 330.0 mg/kg/injection, schedule: Q01DX009 (ip), vehicle: water); 243 % of control (dose: 500.0 mg/kg/injection, schedule: Q01DX009 (ip), vehicle: water); 277 % of control (dose: 750.0 mg/kg/injection, schedule: Q01DX009 (ip), vehicle: water).
In the case of `CC1CCCCN1O` (stereo not given), the T/C reads like this: (dose: 100.0 mg/kg/injection, schedule: Q04DX002 (ip), vehicle: saline with Tween-80) 100 % of control; (dose: 200.0 mg/kg/injection, schedule: Q04DX002 (ip), vehicle: saline with Tween-80) 105 % of control; (dose: 400.0 mg/kg/injection, schedule: Q04DX002 (ip), vehicle: saline with Tween-80) 96 % of control.
Consider `NCC(=O)Nc1ccc(O)cc1`, for which the T/C (dose: 79.0 mg/kg/injection, schedule: Q04DX003 (ip), vehicle: saline with Tween-80) is 100 % of control; the T/C (dose: 118.0 mg/kg/injection, schedule: Q04DX003 (ip), vehicle: saline with Tween-80) was 104 % of control; the T/C (dose: 176.0 mg/kg/injection, schedule: Q04DX003 (ip), vehicle: saline with Tween-80) is 100 % of control; the T/C (dose: 400.0 mg/kg/injection, schedule: Q01DX009 (ip), vehicle: saline with Tween-80) was 118 % of control; the T/C (dose: 600.0 mg/kg/injection, schedule: Q01DX009 (ip), vehicle: saline with Tween-80) is 90 % of control.
Turning to `CS(=O)(=O)N(CC(=O)O)Cc1ccccc1`, the T/C is 107 % of control (dose: 50.0 mg/kg/injection, schedule: Q04DX003 (ip), vehicle: sodium bicarbonate); 119 % of control (dose: 100.0 mg/kg/injection, schedule: Q04DX003 (ip), vehicle: sodium bicarbonate); 103 % of control (dose: 200.0 mg/kg/injection, schedule: Q04DX003 (ip), vehicle: sodium bicarbonate); 110 % of control (dose: 400.0 mg/kg/injection, schedule: Q04DX003 (ip), vehicle: sodium bicarbonate).
